Experimental data taken from patent US20180015170A1, “CYCLODEXTRIN-BASED POLYMERS FOR THERAPEUTIC DELIVERY” (CERULEAN PHARMA INC., priority 2012, published 2018).
Values joined by “and” are separate entries in the source; they are usually repeats but may differ in a detail not shown here. Identical values can stand only once.

How the values were obtained:
B16.F10 cells = experiment: Efficacy of CDP-docetaxel nanoparticles in a murine melanoma model; assay type: in vivo, male C57BL/6 mice
Protocol: (§1) Animals were monitored for any morbidity and adverse effect three times a week.
Tumor volume was calculated with a (width×width×length)/2 mm^3 formula.

[1] = Tolerability (body weight) in the B16.F10 murine melanoma model
Protocol: as §1
Health monitoring was conducted three times a week to evaluate lethargy, tremors, hypothermia, ataxia, hind limb paralysis etc. The criteria at which a mouse was removed from the study were >20% body weight loss or severe morbidity or hind limb paralysis.

[2] = 15 mg/kg IV, weekly schedule for 3 injections
[3] = 30 mg/kg IV, weekly schedule for 3 injections (sections 1.4, 2.3, 4.2, 5.2)

CDP-2′-aminoethoxyethoxy-Docetaxel [CDP-aminoethoxyethoxy-DTX formulation]
day on which the mean tumor volume endpoint (≧3000 mm^3) was reached (B16.F10 cells; [2]): 33 days

CDP-dithiolethyloxy-carbonate-docetaxel [CDP-ethane-S-S-ethane-DTX formulation]
Tumor growth delay (TGD) (B16.F10 cells; [2]): 2 days
day on which the mean tumor volume endpoint (≧3000 mm^3) was reached (B16.F10 cells; [2]): 21 days
increase in TGD (B16.F10 cells; [2]): 11%
Tumor growth delay (TGD) (B16.F10 cells; [3]): 5 days
day on which the mean tumor volume endpoint (≧3000 mm^3) was reached (B16.F10 cells; [3]): 24 days
increase in TGD (B16.F10 cells; [3]): 26%
Maximum body weight loss (%) [1, 2]: did not cause any body weight loss
Maximum body weight loss (%) [1, 3]: did not cause any significant body weight loss

CDP-2′-alanine glycolate-docetaxel [CDP-Ala Gly-DTX formulation]
day on which the mean tumor volume endpoint (≧3000 mm^3) was reached (B16.F10 cells; mouse, in vivo): 43 days and 33 days and 29 days
